# Results taken from US20130345243A1, “1H-PYROLLO[3,2-D]PYRIMIDINEDIONE DERIVATIVES” (GLAXOSMITHKLINE LLC, priority 2011, published 2013).
# Legend:
# ob/ob and db/db mice = conditions: 8 day administration; cited from earlier work
# Human recombinant AMPK = assay: AMPK Enzymatic Assay (Z'Lyte FRET); assay type: biochemical; conditions: ATP 100 μM, peptide 2 μM, means of at least 2 independent experiments
# Method: Human recombinant AMPK (Invitrogen #PV4673 & #PV4675) is used in a FRET assay format (Z'Lyte—Invitrogen). Assay conditions are as follow: ATP 100 μM, peptide (Invitrogen # PR8650) 2 μM, 1% final DMSO in Z'Lyte kinase buffer. Reaction is initiated by addition of 0.2-0.8 ng of AMPK and incubated for 1-hour @ 30° C. A further 1-hour incubation @ 30° C. with the development reagent (Invitrogen # PR5194) is performed. FRET signal is then measured and converted to “% peptide phosphorylation” according to Z'Lyte given calculation procedure. Evaluation of compounds is carried out using concentration-response curves. Final data are expressed in “% activation” calculating the ratio of “% peptide phosphorylation” between compound-condition and basal-condition. Alternatively pEC200 (−Log(compound concentration leading to a 2-fold AMPK activity increase)) is produced through fitting of the concentration-response curves. All data are means of at least 2 independent experiments.
Compound,reduces blood glucose (ob/ob and db/db mice) [%],pEC50 (Human recombinant AMPK)
NC(=O)c1ncn([C@@H]2O[C@H](CO)[C@@H](O)[C@H]2O)c1N [AICAR],35,–
"Cl.Nc1nc(-c2ccc(-n3c(Cl)cc4[nH]c(=O)n(-c5cccc(C(=O)O)c5)c(=O)c43)cc2)cs1 [Example 11, 3-(5-(4-(2-Aminothiazol-4-yl)phenyl)-6-chloro-2,4-dioxo-1H-pyrrolo[3,2-d]pyrimidin-3(2H,4H,5H)-yl)benzoic acid hydrochloride]",–,6.2
"Nc1nc(-c2ccc(-n3c(Cl)cc4[nH]c(=O)n(-c5ccccc5F)c(=O)c43)cc2)cs1 [Example 12, 5-[4-(2-Amino-1,3-thiazol-4-yl)phenyl]-6-chloro-3-(2-fluorophenyl)-1H-pyrrolo[3,2-d]pyrimidine-2,4(3H,5H)-dione]",–,6.1
